Among the data in BindingDB's records for patent US11746110 (Shenzhen Targetrx, 2023) are IC50 values, retold here.

The test addresses Tyrosine-protein kinase ABL1 (Homo sapiens, UniProt P00519). In words: Biochemical Kinase Assay. As to the method:
Reagents and materials: ABL (ThermoFisher, Cat. No. PV3585), ABL T315I(Thermo Fisher, Cat. No. PR7429B), Ret (Carna, Cat. No. 08-159-10 ug), RETV804M, Active (Signalchem, Cat. No. R02-12GG), ATP (Sigma, Cat. No. A7699-1G), DMSO (Sigma, Cat. No. D2650), 96-well plate (Corning, Cat. No. 3365), 384-well plate (Greiner, Cat. No. 784076), buffer solution (Thermo Fisher, Cat. No. PR4876B). Specific Assay Method: Compound formulation: The test compounds were dissolved in DMSO to prepare a 20 mM stock solution. Before use, the compounds were diluted in DMSO to 0.1 mM, and diluted into 11 concentrations with a 3-fold gradient. When addition, dilutions of 4-fold final concentration were then made with buffer solution. Kinase assay method: After preparing the buffer, the enzyme was mixed with pre-formulated and diluted compounds of different concentrations in duplicate for each concentration, and placed at room temperature for 30 minutes. The corresponding substrate and ATP were added thereto,and reacted at room temperature for 60 minutes (both a negative and a positive control were set). After the reaction, antibody was added for detection, Envision detection was carried out after 60 minutes incubation at room temperature, and data was collected. Data analysis and fitting were made according to XLfit5 software.

Sequence of Tyrosine-protein kinase ABL1 (P00519 whole entry): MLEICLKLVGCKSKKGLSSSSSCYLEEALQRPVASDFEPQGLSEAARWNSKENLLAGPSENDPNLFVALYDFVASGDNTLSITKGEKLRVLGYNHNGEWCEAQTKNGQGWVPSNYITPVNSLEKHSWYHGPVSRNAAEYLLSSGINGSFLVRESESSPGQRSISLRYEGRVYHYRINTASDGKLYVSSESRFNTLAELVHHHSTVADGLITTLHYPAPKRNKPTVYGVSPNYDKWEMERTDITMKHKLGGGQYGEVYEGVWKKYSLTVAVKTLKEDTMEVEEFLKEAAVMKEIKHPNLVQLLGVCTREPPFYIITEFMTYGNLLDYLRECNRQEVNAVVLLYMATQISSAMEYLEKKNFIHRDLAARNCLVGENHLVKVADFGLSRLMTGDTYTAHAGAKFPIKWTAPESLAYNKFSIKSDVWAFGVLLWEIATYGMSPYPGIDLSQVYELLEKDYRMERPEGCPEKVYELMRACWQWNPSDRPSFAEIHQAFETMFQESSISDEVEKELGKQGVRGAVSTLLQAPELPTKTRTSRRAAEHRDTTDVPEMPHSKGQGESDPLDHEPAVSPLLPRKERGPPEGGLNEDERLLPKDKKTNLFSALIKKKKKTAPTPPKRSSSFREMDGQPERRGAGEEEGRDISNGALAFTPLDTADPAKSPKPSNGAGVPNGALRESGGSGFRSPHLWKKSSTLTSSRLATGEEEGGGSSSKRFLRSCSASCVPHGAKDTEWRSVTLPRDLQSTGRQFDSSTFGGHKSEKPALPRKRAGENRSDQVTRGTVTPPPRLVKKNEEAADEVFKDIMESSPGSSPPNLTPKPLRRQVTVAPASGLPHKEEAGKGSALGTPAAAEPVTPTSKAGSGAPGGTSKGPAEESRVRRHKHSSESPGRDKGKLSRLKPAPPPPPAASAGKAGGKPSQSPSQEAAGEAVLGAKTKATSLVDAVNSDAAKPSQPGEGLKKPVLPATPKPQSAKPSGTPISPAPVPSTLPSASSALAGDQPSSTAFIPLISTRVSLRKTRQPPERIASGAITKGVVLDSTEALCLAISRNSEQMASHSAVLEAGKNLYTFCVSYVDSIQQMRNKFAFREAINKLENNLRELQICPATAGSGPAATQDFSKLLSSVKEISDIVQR

By IC50 is commonly meant the midpoint of a concentration-inhibition curve. Low readings indicate greater potency in that assay, high ones weaker potency in that assay. The compound `Cc1ccc(NC(=O)Nc2ccc(Cl)c(C(F)(F)F)c2)cc1C#Cc1cnc2c(Nc3cnn(C)c3)nccn12` [US11746110, Example 7] yielded an IC50 of 32.1 nM. To `Cc1ccc(NC(=O)Nc2ccc(Cl)c(C(F)(F)F)c2)cc1C#Cc1cnc2c(Nc3cnn(C)c3)ccnn12` [US11746110, Example 16] belongs 82.9 nM.
